Experimental findings from PMC3489029 (Journal of the American Chemical Society, 2012) are described below.

Test [1] deals with cell wall binding domain of the endolysin PlyL (Bacillus anthracis, UniProt A0A6H3AMF3). As to the kind of experiment: biochemical. Details: species or system Bacillus anthracis bacteriophage.
The target in test [2] is cell wall binding domain of the endolysin PlyG (Bacillus phage Gamma, UniProt Q8LTE6). Kind of test: biochemical. Further details: species or system Bacillus anthracis bacteriophage.
cell wall binding domain of the endolysin PlyG, sequence (Q8LTE6 166-233 limits assumed): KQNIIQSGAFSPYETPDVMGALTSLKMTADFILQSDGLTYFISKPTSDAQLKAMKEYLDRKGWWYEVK

cell wall binding domain of the endolysin PlyL, sequence (A0A6H3AMF3 160-234 limits assumed): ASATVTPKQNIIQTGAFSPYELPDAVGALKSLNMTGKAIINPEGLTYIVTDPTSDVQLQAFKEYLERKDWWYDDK

Usually Kd stands for the concentration at which binding is half-saturated. Consider `CC(=O)N[C@@H]1[C@H](O[C@H]2[C@H](O)[C@@H](NC(C)=O)[C@H](OCCCCCN)O[C@@H]2CO)O[C@H](CO)[C@@H](O)[C@@H]1O` [Compound 6], for which the values for the Kd in test [1] and in test [2] were 110 ± 9 µM and 49 ± 2 µM, respectively.

As to `CC(=O)N[C@@H]1[C@H](O[C@H]2[C@H](O)[C@@H](NC(C)=O)[C@H](OCCCCCN)O[C@@H]2CO)O[C@H](CO)[C@@H](O[C@H]2O[C@H](CO)[C@H](O)[C@H](O)[C@H]2NC(C)=O)[C@@H]1O` [Compound 7], the values for the Kd in test [1] and in test [2] were 43 ± 11 µM and 19.5 ± 7.5 µM, respectively.

As for `CC(=O)N[C@@H]1[C@H](O[C@H]2[C@H](O[C@H]3O[C@H](CO)[C@H](O)[C@H](O)[C@H]3O)[C@@H](NC(C)=O)[C@H](OCCCCCN)O[C@@H]2CO)O[C@H](CO)[C@@H](O[C@H]2O[C@H](CO)[C@@H](O[C@@H]3O[C@H](CO)[C@H](O)[C@H](O)[C@H]3O)[C@H](O[C@H]3O[C@H](CO)[C@H](O)[C@H](O)[C@H]3O)[C@H]2NC(C)=O)[C@@H]1O` [Compound 1], in test [1], binding was characterised by a dissociation constant (Kd) of 23 ± 2 µM and the “fold reduced affinity compared to tetrasaccharide 3” value worked out at 10 fold. Moreover, binding in test [2] was characterised by a dissociation constant (Kd) of 23.3 ± 0.5 µM.

With `CC(=O)N[C@@H]1[C@H](O[C@H]2[C@H](O)[C@@H](NC(C)=O)[C@H](OCCCCCN)O[C@@H]2CO)O[C@H](CO)[C@@H](O[C@H]2O[C@H](CO)[C@@H](O)[C@H](O)[C@H]2NC(C)=O)[C@@H]1O` [Compound 2], the values for the Kd in test [1] and in test [2] were 13.5 µM and 8.6 ± 0.4 µM, respectively.

On to `CC(=O)N[C@@H]1[C@H](O[C@H]2[C@H](O)[C@@H](NC(C)=O)[C@H](OCCCCCN)O[C@@H]2CO)O[C@H](CO)[C@@H](O[C@H]2O[C@H](CO)[C@@H](O[C@@H]3O[C@H](CO)[C@H](O)[C@H](O)[C@H]3O)[C@H](O)[C@H]2NC(C)=O)[C@@H]1O` [Compound 3], for which, in test [1], the Kd was determined as 1.1 µM and the “binding to PlyL in words” value is “exceptional high affinity”. In addition, binding in test [2] was put at a Kd of 2.1 ± 1.1 µM.

Turning to `CC(=O)N[C@@H]1[C@H](O[C@H]2[C@H](O[C@H]3O[C@H](CO)[C@H](O)[C@H](O)[C@H]3O)[C@@H](NC(C)=O)[C@H](OCCCCCN)O[C@@H]2CO)O[C@H](CO)[C@@H](O[C@H]2O[C@H](CO)[C@@H](O)[C@H](O)[C@H]2NC(C)=O)[C@@H]1O` [Compound 5], the Kd was found to be 6.2 ± 2 µM in test [1] and 4.1 ± 0.5 µM in test [2].

Turning to `CC(=O)N[C@@H]1[C@H](O[C@H]2[C@H](O)[C@@H](NC(C)=O)[C@H](OCCCCCN)O[C@@H]2CO)O[C@H](CO)[C@@H](O[C@H]2O[C@H](CO)[C@@H](O)[C@H](O[C@H]3O[C@H](CO)[C@H](O)[C@H](O)[C@H]3O)[C@H]2NC(C)=O)[C@@H]1O` [Compound 4], in test [1], the Kd worked out at 153 ± 10 µM and the “binding to PlyL in words” value was “complexed poorly with the protein”. The Kd in test [2] is 136 ± 7 µM.
